Measured values from PubChem BioAssay (NCI).
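Cultured in 96-well plates, cells were exposed to test compound for 48 hours across five concentrations. GI50: concentration for 50% inhibition of growth. The concentration for full growth arrest is given as TGI.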

Assays:
Assay in all cases: NCI tumour cell line growth inhibition, 48 h
SNB-78 CNS = test system: SNB-78 CNS
M19-MEL melanoma = test system: M19-MEL melanoma
P388 leukemia = test system: P388 leukemia
P388/ADR leukemia = test system: P388/ADR leukemia
XF 498 CNS = test system: XF 498 CNS
SN12K1 renal = test system: SN12K1 renal
KM20L2 colon = test system: KM20L2 colon
HOP-18 NSCLC = test system: HOP-18 NSCLC
RXF-631 renal = test system: RXF-631 renal
LXFL 529 NSCLC = test system: LXFL 529 NSCLC
DMS 273 small cell lung = test system: DMS 273 small cell lung

CC1OC(O[C@@H]2C=C3CC[C@@H]4[C@H](CC[C@]5(C)[C@@H](c6ccc(=O)oc6)CC[C@]45O)[C@@]3(C)CC2)C(O)C(OC2OC(CO)C(O)C(O)C2O)C1O (some centres not stated)
TGI (SNB-78 CNS): 0.033 µM | TGI (M19-MEL melanoma): 0.039 µM | TGI (P388 leukemia): 115 µM | TGI (P388/ADR leukemia): 142 µM | TGI (XF 498 CNS): 0.0276 µM | TGI (SN12K1 renal): 0.025 µM | TGI (KM20L2 colon): 0.0545 µM

O=C1C(=C([O-])c2ccccc2)C(=O)c2ccccc21.O=C1C(=C([O-])c2ccccc2)C(=O)c2ccccc21.[Ni+2]
GI50 (HOP-18 NSCLC): 27.9 µM | TGI (HOP-18 NSCLC): > 100 µM | GI50 (KM20L2 colon): > 100 µM | TGI (KM20L2 colon): > 100 µM

O=S(O)c1cc(Cl)c(O)c(Cl)c1
TGI (SNB-78 CNS): > 100 µM | TGI (M19-MEL melanoma): > 100 µM | TGI (XF 498 CNS): > 100 µM | TGI (RXF-631 renal): > 100 µM | TGI (LXFL 529 NSCLC): > 100 µM

CC(=O)OCC1OC(N=[N+]=[N-])C(OC(C)=O)C(OC(C)=O)C1OC1OC(COC(C)=O)C(OC(C)=O)C(OC(C)=O)C1OC(C)=O (configuration not stated)
TGI (SNB-78 CNS): > 100 µM | TGI (M19-MEL melanoma): > 100 µM | TGI (XF 498 CNS): > 100 µM | TGI (RXF-631 renal): > 100 µM | TGI (DMS 273 small cell lung): > 100 µM | TGI (LXFL 529 NSCLC): > 100 µM | TGI (KM20L2 colon): > 100 µM

COc1cc(O)c(Cc2ccccc2O)c(O)c1C(=O)CCc1ccccc1
TGI (SNB-78 CNS): 31.4 µM | TGI (M19-MEL melanoma): 20.5 µM | TGI (HOP-18 NSCLC): 4.53 µM | TGI (P388 leukemia): 13.5 µM | TGI (P388/ADR leukemia): 14 µM | TGI (XF 498 CNS): 7.76 µM | TGI (DMS 273 small cell lung): 13.1 µM | TGI (SN12K1 renal): 19.5 µM | TGI (KM20L2 colon): 24.6 µM
